According to ChEMBL document CHEMBL5523725, “Fragment-Based Anti-inflammatory Agent Design and Target Identification: Discovery of AF-45 as an IRAK4 Inhibitor to Treat Ulcerative Colitis and Acute Lung Injury” (J Med Chem, 2024):
The source made the active and inactive calls. The calls are words filed in the database; no cut-off is given here.

Columns and labels:
[1] = test system: Mus musculus; assay: In vivo binding affinity to IRAK4 in DSS-induced ulcerative colitis C57BL/6 mouse colon assessed as thermal stabilization at 10 to 20 mg/kg, po administered for 11 days with subsequent administration of DSS for 8 days by CETSA; assay type: functional, organism-based; details: dose 10-20 mg/kg, time 11.0 day
[2] = test system: RAW264.7; assay: cells; details: Mus musculus
Description: Antiinflammatory activity in LPS-induced mouse RAW264.7 cells assessed as inhibition of IL-6 release pretreated for 30 mins followed by LPS stimulation and measured after 24 hrs by ELISA

[3] = test system: RAW264.7; assay: Antiinflammatory activity in LPS-induced mouse RAW264.7 cells assessed as inhibition of TNF-alpha mRNA transcription pretreated for 2 hrs followed by LPS stimulation and measured after 6 hrs by RT-qPCR analysis; assay type: functional, cell-based; details: dose 5-10 µM, time 8.0 hrs
[4] = test system: J774.A1; assay: cells; details: Mus musculus
Description: Antiinflammatory activity in LPS-induced mouse J774.A1 cells assessed as inhibition of TNF-alpha release pretreated for 30 mins followed by LPS stimulation and measured after 24 hrs by ELISA

[5] = Drug uptake in male Sprague-Dawley rat blood at 1 mg/kg, iv administered via tail vein and measured after 24 hrs; assay type: ADME, organism-based; details: in vivo
[6] = test system: Mus musculus; assay: Antiinflammatory activity in male C57BL/6 mouse model of DSS-induced ulcerative colitis assessed as reduction in macrophage infiltration in spleen at 10 to 20 mg/kg, po administered for 11 days with subsequent administration of DSS for 8 days by F4/80 labeling based immunohistochemistry analysis; assay type: functional, organism-based; details: dose 10-20 mg/kg, time 11.0 day
[7] = molecular target: Mitogen-activated protein kinase 14 (Homo sapiens) (UniProt Q16539); assay: Inhibition of p38alpha (unknown origin) at 10 uM relative to control
Sequence of Mitogen-activated protein kinase 14 (Homo sapiens) (Q16539 whole entry): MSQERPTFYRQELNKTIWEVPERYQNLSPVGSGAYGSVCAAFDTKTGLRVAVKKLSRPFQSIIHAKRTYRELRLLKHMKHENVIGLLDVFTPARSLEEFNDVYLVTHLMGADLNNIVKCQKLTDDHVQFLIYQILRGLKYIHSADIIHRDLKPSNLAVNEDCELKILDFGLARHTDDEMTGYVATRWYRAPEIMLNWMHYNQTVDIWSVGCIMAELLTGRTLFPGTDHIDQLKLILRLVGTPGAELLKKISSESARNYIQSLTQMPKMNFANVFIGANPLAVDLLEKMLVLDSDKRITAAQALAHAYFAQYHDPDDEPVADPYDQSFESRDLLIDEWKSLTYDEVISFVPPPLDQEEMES

[8] = test system: Mus musculus; assay: Antiinflammatory activity in LPS induced C57BL/6 mouse model of acute lung injury assessed as reduction in macrophage infiltration in lung at 20 to 40 mg/kg, ip preadministered for 30 mins followed by LPS administration and measured after 6 hrs by F4/80 labeling based immunohistochemical analysis; assay type: functional, organism-based; details: dose 20-40 mg/kg, time 6.5 hrs
[9] = Half life in male Sprague-Dawley rat at 10 mg/kg, po measured upto 24 hrs; assay type: ADME, organism-based; details: in vivo
[10] = Cmax in male Sprague-Dawley rat at 1 mg/kg, iv administered via tail vein and measured upto 24 hrs; assay type: ADME, organism-based; details: in vivo
[11] = molecular target: Interleukin-1 receptor-associated kinase 1 (Homo sapiens, UniProt P51617); assay: Inhibition of IRAK1 (unknown origin)
Sequence of Interleukin-1 receptor-associated kinase 1 (P51617 whole entry): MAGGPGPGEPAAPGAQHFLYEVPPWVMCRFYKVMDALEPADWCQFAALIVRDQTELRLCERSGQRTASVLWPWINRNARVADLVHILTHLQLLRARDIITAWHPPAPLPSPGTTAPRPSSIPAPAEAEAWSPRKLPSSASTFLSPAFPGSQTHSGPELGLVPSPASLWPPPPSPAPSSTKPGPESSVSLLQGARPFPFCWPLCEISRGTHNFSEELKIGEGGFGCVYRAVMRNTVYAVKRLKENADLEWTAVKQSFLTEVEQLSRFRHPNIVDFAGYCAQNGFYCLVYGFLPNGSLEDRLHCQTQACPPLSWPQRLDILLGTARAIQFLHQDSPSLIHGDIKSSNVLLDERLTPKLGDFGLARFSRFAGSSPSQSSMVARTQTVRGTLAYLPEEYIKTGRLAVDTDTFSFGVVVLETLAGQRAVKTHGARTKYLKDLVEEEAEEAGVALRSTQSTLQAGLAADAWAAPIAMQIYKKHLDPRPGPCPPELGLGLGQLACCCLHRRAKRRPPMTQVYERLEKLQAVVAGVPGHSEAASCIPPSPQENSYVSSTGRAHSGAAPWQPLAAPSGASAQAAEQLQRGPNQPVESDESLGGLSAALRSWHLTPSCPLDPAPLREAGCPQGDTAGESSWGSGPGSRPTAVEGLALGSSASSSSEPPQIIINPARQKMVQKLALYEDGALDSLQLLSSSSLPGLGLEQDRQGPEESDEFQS

[12] = test system: Tyrosine-protein kinase ABL1 (Homo sapiens), P00519 [T315I]; assay: Inhibition of human ABL […] mutant assessed as residual activity at 10 uM by Eurofins kinase profiler method relative to control
[13] = molecular target: T1, Inhibitor of nuclear factor kappa-B kinase subunit beta (Homo sapiens) (UniProt O14920); assay: Inhibition of IKKbeta (unknown origin) at 10 uM relative to control
T1 sequence (whole entry): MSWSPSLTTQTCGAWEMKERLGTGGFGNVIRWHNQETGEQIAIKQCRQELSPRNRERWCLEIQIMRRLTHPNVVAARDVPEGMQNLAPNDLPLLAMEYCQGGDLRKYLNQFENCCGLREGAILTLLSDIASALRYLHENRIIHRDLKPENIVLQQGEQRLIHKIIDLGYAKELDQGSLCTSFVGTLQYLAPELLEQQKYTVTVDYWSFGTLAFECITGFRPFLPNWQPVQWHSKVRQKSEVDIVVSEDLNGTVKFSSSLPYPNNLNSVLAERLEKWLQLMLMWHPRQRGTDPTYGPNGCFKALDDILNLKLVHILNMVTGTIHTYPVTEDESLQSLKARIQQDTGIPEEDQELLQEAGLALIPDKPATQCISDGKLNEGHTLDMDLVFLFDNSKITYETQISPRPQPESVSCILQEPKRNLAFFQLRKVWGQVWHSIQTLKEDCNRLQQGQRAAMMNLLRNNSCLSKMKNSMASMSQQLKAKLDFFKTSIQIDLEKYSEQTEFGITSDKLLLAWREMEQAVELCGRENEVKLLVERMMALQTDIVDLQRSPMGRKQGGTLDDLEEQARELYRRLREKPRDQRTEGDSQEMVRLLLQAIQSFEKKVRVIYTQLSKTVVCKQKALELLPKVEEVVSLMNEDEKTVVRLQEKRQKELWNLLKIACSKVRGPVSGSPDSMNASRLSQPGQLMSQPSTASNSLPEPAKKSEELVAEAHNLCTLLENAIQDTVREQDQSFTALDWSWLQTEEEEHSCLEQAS

[14] = test system: Mus musculus; assay: Antiinflammatory activity in male C57BL/6 mouse model of DSS-induced ulcerative colitis assessed as preservation of goblet cells at 10 to 20 mg/kg, po administered for 11 days with subsequent administration of DSS for 8 days by H and E staining based analysis; assay type: functional, organism-based; details: dose 10-20 mg/kg, time 11.0 day
[15] = test system: Mus musculus; assay: Anti-colitis activity in male C57BL/6 mouse model of DSS-induced ulcerative colitis assessed as colon length at 20 mg/kg, po administered for 11 days with subsequent administration of DSS for 8 days (reference value: 5.2 cm); assay type: functional; details: time 11 day
[16] = test system: Mus musculus; assay: Antiinflammatory activity in male C57BL/6 mouse model of DSS-induced ulcerative colitis assessed as reduction in DAI score at 20 mg/kg, po administered for 11 days with subsequent administration of DSS for 8 days; assay type: functional, organism-based; details: time 11.0 day
[17] = Tmax in male Sprague-Dawley rat at 10 mg/kg, po measured upto 24 hrs; assay type: ADME, organism-based; details: in vivo
[18] = AUC (0 to t) in male Sprague-Dawley rat at 10 mg/kg, po measured upto 24 hrs; assay type: ADME, organism-based; details: in vivo
[19] = test system: RAW264.7; assay: Inhibition of NFkappaB/MAPK signaling pathway in mouse RAW264.7 cells assessed as reduction in LPS-induced p38 phosphorylation at 50 uM by Western blot analysis; assay type: cell-based
[20] = Cmax in male Sprague-Dawley rat at 10 mg/kg, po measured upto 24 hrs; assay type: ADME, organism-based; details: in vivo
[21] = test system: RAW264.7; assay: Inhibition of NFkappaB/MAPK signaling pathway in mouse RAW264.7 cells assessed as reduction in LPS-induced JNK phosphorylation at 50 uM by Western blot analysis; assay type: cell-based
[22] = test system: RAW264.7; assay: Inhibition of NFkappaB signaling pathway in LPS-induced mouse RAW264.7 cells assessed as inhibition of IkappaBalpha degradation by Western blot analysis; assay type: cell-based; details: dose 2.5-10 µM
[23] = Cytotoxicity against mouse RAW264.7 cells assessed as cell viability by MTT assay; assay type: toxicity, cell-based; design: concentration or dose not given beside the values; details: read-out: Activity
[24] = test system: Mus musculus; assay: Antiinflammatory activity in male C57BL/6 mouse model of DSS-induced ulcerative colitis assessed as reduction in spleen to body weight ratio at 10 to 20 mg/kg, po administered for 11 days with subsequent administration of DSS for 8 days; assay type: functional, organism-based; details: dose 10-20 mg/kg, time 11.0 day
[25] = Tmax in male Sprague-Dawley rat at 1 mg/kg, iv administered via tail vein and measured upto 24 hrs; assay type: ADME, organism-based; details: in vivo
[26] = test system: RAW264.7; assay: Inhibition of NFkappaB/MAPK signaling pathway in mouse RAW264.7 cells assessed as reduction in LPS-induced p65 phosphorylation at 50 uM by Western blot analysis; assay type: cell-based
[27] = AUC (0 to t) in male Sprague-Dawley rat at 1 mg/kg, iv administered via tail vein and measured upto 24 hrs; assay type: ADME, organism-based; details: in vivo
[28] = test system: Mus musculus; assay: Antiinflammatory activity in LPS induced C57BL/6 mouse model of acute lung injury assessed as reduction in number of macrophages in spleen at 20 to 40 mg/kg, ip preadministered for 30 mins followed by LPS administration and measured after 6 hrs by F4/80 labeling based immunohistochemical analysis; assay type: functional, organism-based; details: dose 20-40 mg/kg, time 6.5 hrs

COc1cc2c(O[C@H]3CC[C@@H](N)CC3)ncnc2cc1OCc1ccccc1
Activity [1]: Active | IC50 [2]: 1270 nM | Activity [3]: Dose-Dependent Effect | IC50 [4]: 2750 nM | Drug uptake [5]: Active | Activity [6]: Active | inhibition [7]: 0.03% | Activity [8]: Active | half-life [9]: 5.6 h | Cmax [10]: 6260 ng/mL | IC50 [11]: 1770 nM | Activity [12]: 70% | inhibition [13]: -1.64% | Activity [14]: Active | Activity [15]: 6.2 cm | Activity [16]: Active | Tmax [17]: 3 h | AUCt [18]: 10653.6 ng·h/mL | inhibition [19]: Active | Cmax [20]: 1250 ng/mL | inhibition [21]: Active | inhibition [22]: Dose-Dependent Effect | viability [23]: 98.2% | Activity [24]: Active | Tmax [25]: 4.8 min | inhibition [26]: Active | AUC(0-t) at 24 h [27]: 3800 ng·h/mL | Activity [28]: Active
